Data published in US10300107B2, “Compositions and methods for CaMKII inhibitors and uses thereof” (THE REGENTS OF THE UNIVERSITY OF COLORADO, priority 2007, dated 2019).
“Also recorded” adds a separate entry of the source. Where no end group is shown, it is not given here.

How the values were obtained:
CaMKII [1] = target: T1, CaMKII (Homo sapiens, UniProt Q9UQM7); assay: CaMKII phosphorylation of crude liver extracts or GST-NR2B-c (autoradiography); type: biochemical; settings: 5 μM
T1 construct: made in house; host or cells: baculovirus/Sf9 cells
Method: Crude liver extracts or NR2B-c were phosphorylated with 100 nM autophosphorylated CaMKII, 2 μM CaM and 40 μM [γ-^32P]-ATP (˜2 Ci/mmole). Pre-auto-phosphorylation (of 300 nM CaMKII) was done for 5 min on ice, in presence of 3 mM CaCl2, 6 μM CaM and 120 μM unlabelled ATP. After addition of [γ-^32P]-ATP and inhibitors as indicated, 2 min reactions at 30° C. were started by addition of substrate protein extract (⅓^rd to 1/12th of total reaction volume), and stopped with 25 mM EDTA. Phosphorylation was detected by autoradiography after gel electrophoresis.

[2] = target: T2, CaMKII binding to GST-NR2B-c (Homo sapiens, UniProt Q9UQM7); assay: Ca2+/CaM-induced CaMKII binding to immobilized GST-NR2B-c; settings: Western blot of eluted CaMKII
T2 construct: made in house; host or cells: CaMKII: baculovirus/Sf9; GST-NR2B-c and CaM: bacteria
Method: CaMKII binding to NR2B-c was assessed as previously described. Briefly, GST-NR2B-c was immobilized on anti-GST coated microtiter plates, then overlaid with 100 nM CaMKII in presence of Ca^2+/CaM and 1 or 5 μM of various CN peptides. After extensive wash, protein was eluted from the plates by boiling in SDS-loading buffer. Eluted CaMKII was detected by Western-blot as described above.

[3] = tested on: other kinases of the panel (CaMKIV, PKA, PKCα, JNK1α1, MAPK1, raf); type: biochemical; settings: 5 μM peptide
Method: Kinase panels. A panel of different kinases was tested utilizing a kinase profiling service (Upstate Biotechnology). 40 min reactions at room temperature contained 0.1% BSA and were started by addition of 10 mM MgAcetate and [γ-^33P-ATP], stopped by 0.1% phosphoryic acid, spotted on filter mats, and washed 3×5 min in 75 mM phosphoric acid and 1× in methanol prior to drying and scintillation counting. CaMKII and IV were activated by 5 mM CaCl2 and 1.7 μM CaM in 40 mM Hepes pH 7.4; substrate was 30 μM […] (SEQ ID NO:22). Buffers and substrates for the other kinases are stated in brackets: PKA (8 mM MOPS pH 7, 0.2 mM EDTA; 30 μM Kemptide), PKCα (20 mM Hepes pH 7.2, 0.3% Triton X-100, 0.1 mg/ml phosphatidylserine, 10 μg/ml diacylglycerol; 0.1 mg/ml histone H1), JNK1α1 (50 mM Tris pH 7.5, 0.1 mM EGTA, 0.1% β-mercapto-ethanol; 3 μM ATF), MAPK1 and raf (25 mM Tris, pH 7.5, 0.02 mM EGTA; 250 μM proprietary substrate and 0.66 mg/ml myelin basic protein, respectively). Reactions in presence of 5 μM CN21a were done in duplicate, and normalized to four parallel reactions without inhibitor.

[4] = tested on: CaMKII T-site mutants W237R and 1205K; assay: Kinase assay with GFP-CaMKIIα T-site mutants; type: biochemical; settings: substrate syntide2
From the text: In another example, FIG. 3. […] FIG. 3A represents a model of CaMKII kinase domain (Rosenberg et al., 2005) with the substrate binding S-site (indicated), the T286-region binding T-site (indicated), and the regulatory region (shown as ribbon). The arrow indicates the proposed orientation of CN21a binding to the T-site, when the regulatory region is displaced after activation. […] Results are normalized to maximal kinase activity without inhibitor. Error bars show s.e.m. […] Bound CaMKII was eluted and detected by Western blot.
(§1) CaMKII activity assays. Standard CaMKII assays were done for 1 min at 30° C. previously described, with 20 nM CaMKII (subunit, not holoenzyme concentration), 50 mM PIPES pH 7.2, 0.1 mg/ml BSA, 10 mM MgCl2, 100 μM [γ-^32P] ATP (˜1 Ci/mmol), 1 mM CaCl2, 1-2 μM CaM, and 30-60 μM AC2 peptide (or syntide2). The reactions were spotted onto Whatman P81 phosphocellulose paper rectangles (˜2×2.5 cm). To remove free radioactivity, the paper rectangles were rinsed and washed for 30 min under agitation in 0.5% phosphoric acid or water. […] Radioactivity of the bound peptides was quantified in a Beckman 6000TA scintillation counter by the Cherenkov method. Any changes of the standard protocol were done as indicated. For assays of the GFP-CaMKIIα mutants, kinase amounts were normalized by GFP fluorescence in the extract, and total protein was adjusted with Cos-7 extracts.

CaMKII [5] = target: T1, CaMKII; assay: CaMKII auto- and protein-phosphorylation (MAP2, T286, T305; immuno-blot); type: biochemical; settings: for CaMKII T305 auto-phosphorylation: CN21 5 μM; for CaMKII T305 auto-phosphorylation / CaMKII T286 auto-phosphorylation: KN93 10 μM; for CaMKII T286 auto-phosphorylation: CN peptides 1-5 μM
Method: CaMKII auto- and protein-phosphorylation. 10 nM MAP2 (˜140 nM phosphorylation sites) was used instead of substrate peptide, and reaction times were 5 min, unless indicated otherwise. CaMKII concentration was 100 nM subunits (=8.3 nM holoenzymes). Auto- and MAP2-phosphorylation were assessed by Immuno-blot analysis previously derived (Bayer et al., 2002, incorporated herein by reference) with phospho-T286- or -T305-specific antibodies (1:500; PhosphoSolutions) and an anti-phospho-Thr antibody (1:500; Zymed), respectively. Total CaMKIIα was detected with CBα2 antibody (1:2000; GIBCO). Protein were separated on 10% poly-acrylamid SDS Gels, and electro-blotted onto “Protran” 0.2 μm pore nitrocelluse filters (e.g. Schleicher & Schull) or onto PVDF filters (e.g. Perkin Elmer). Alternatively, for quantitative analyses, a vacuum-driven slot-blot manifold (e.g. Schleicher & Schull) was used for transfer onto PVDF membranes. PVDF membranes were air-dried for 15 min, then wetted in Methanol. Blots were blocked in 5% milk in TBS-T (Tris-buffered saline pH 7.6 with 0.1% Tween-20). Antibodies were incubated for 45-60 min at room temperature in 2.5% milk in TBS-T; for the anti-phospho-T305 antibody, 2.5% BSA was used instead. After secondary antibody incubation (anti-mouse or anti-rabbit horseradish peroxidase conjugate; Amersham; 1:4000), detection was done using the “Western Lightning” system (Perkin Elmer) and exposure to “Hyperfilm” (Amersham). For quantitative analysis, chemoluminescence was captured using a ChemiImager 4400 imaging system (Alpha Innotek) instead of film. Only non-saturated images were analyzed, using AlphaEase software.

CaMKI = CaMKI (Homo sapiens, UniProt Q14012); assay: CaMKI activity / inhibition; type: biochemical
From the text: For curve fit, the Hill coefficient was set as 1.

CaMKII [6] = assay: Kinase panel (kinase profiling service): CaMKII; type: biochemical
CaMKII [7] = type: biochemical
Method: as §1

[8] = target: T3, CaM dissociation from CaMKII (Homo sapiens, UniProt Q9UQM7); assay: TA-CaM dissociation from CaMKII; type: binding; settings: 5 μM; 150 nM CaMKII, 30 nM TA-CaM
T3 construct: made in house; host or cells: baculovirus/Sf9 cells (CaMKII)
Method: TA-CaM dissociation was assessed by increased TA-CaM (30 nM) fluorescence after dissociation from CaMKII or its CaM-binding domain (CBD) (150 nM) during a chase with unlabeled CaM (60 μM). Buffer contained 50 mM Hepes pH 7.4, 150 mM KCl, 2 mM MgCl2, 2 mM MgADP, 2 mM CaCl2, and 0.1 mg/ml BSA. Fluorescence was measured in a time scan (1 sec samples) at 365 nm excitation and 415 nm emission wavelength on a spectro-fluorometer (Fluorolog3; Horiba Jobin Yvon) and was corrected for photobleach (FIG. 16).

[9] = tested on: hippocampal and cortical cultures; assay: Glutamate induced neuronal cell death measured by LDH release; type: cell-based, rat
Method: In another example, neuronal cell death is measured by LDH release. In this exemplary method, glutamate was used to induce neuronal cell death, A portion of CaMKIIN was fused to a cell penetrating molecule to generate tatCN21a construct.

[10] = tested on: 10DIV hippocampal neurons; assay: NMDA induced cell death; type: cell-based; settings: NMDA plus CNQX 5 minutes, assayed 24 hours after insult
Method: Neurons were co-transfected with siRNA or non-targeting RNA (NT) at 8DIV and were assayed at day 10. […] Cells were treated with 300 mM NMDA plus 50 mM CNQX (an AMPAR inhibitor) for 5 minutes and cell death was assayed 24 hours after insult. […] Increased AMPAR expression is thought to lead to increased cell death. Thus, by inducing cell death with NMDA and an AMPAR inhibitor, the AMPAR component was reduced.

calmodulin (CaM) = calmodulin (CaM) (Homo sapiens, UniProt P0DP23); assay: Binding to calmodulin (slot blot, blot overlay, TA-CaM competition with CBD)
Method: TA-labeled CaM represents reduced fluorescence after binding to CaMKII or its CaM binding domain (CBD; −0.05 nM kD for CaM^5; see also FIG. 9G).
Measured was AC2 phosphorylation as described^4. Error bars show s.e.m.

hippocampal neurons = assay: Imaging of neuronal filopodia motility; type: cell-based, rat; settings: 20 min incubation
Method: In another example, motility of hippocampal neurons was analyzed. […] Images of GFP expressing hippocampal neurons (5-6 days in vitro) were acquired at 30° C. in 20 s intervals in order to assess motility.
Imaging of neuronal filopodia motility was done similarly as previously described. Hippocampal cultures were prepared from newborn Sprague Dawley rats (Harlan) as previously described, plated onto poly-D-lysine coated glass bottom dishes (MatTek) at a density of ˜2.5×10^6 cells/cm^2 and maintained in Neurobasal A medium with penicillin/streptomycin (50 units/ml), glutamax (2 mM) and B27 supplement (Invitrogen). […] After 5 days in vitro, neurons were transfected with a GFP expression construct (Clonetech) using lipofectamine 2000 (Invitrogen), as described. On the next day neurons were imaged in culture medium on for example, a Zeiss Axiovert 200M systems equipped with a 40× oil immersion objective, Cool Snap HQ CCD camera (Roeper Scientific), Xenon lamp LB-LS/17 (Sutter Instruments) and climate control set to 30° C. and 5% CO2. Fluorescence Images were acquired and analyzed using SlideBook software (Intelligent Imaging Innovations). 16 images were taken in 20 s time intervals, at 100 ms exposure time and bin factor 2. Subtraction image (Δ image) stacks were generated by subtracting one stack (first image deleted) from its duplicate (last image deleted). […]

CaMKII [11] = target: T1, CaMKII; assay: CaMKII self-association in vitro; type: biochemical
Method: (§2) Stimulated CaMKII activity was assessed using purified CaMKII, [γ^32P]ATP, and the CaMKII substrate, syntide2. Reaction was initiated by addition of calcium and calmodulin. To measure autonomous activity, CaMKII was pre-autophosphorylated by incubation with calcium and calmodulin, which was then chelated by addition of EDTA prior to adding the kinase to syntide2 and [γ^32P]ATP. […] To measure self-association, purified CaMKII was incubated for five minutes with 1mM ADP, calcium and calmodulin, and the appropriate inhibitor. The reaction mixture was then centrifuged to pellet the self-associated kinase. The supernatant (S) was removed and saved and the pellet (P) was resuspended. Both were then resolved by SDS-PAGE and western-blotted for CaMKII. Self-associated kinase is found in the pellet.

CaMKII [12] = target: T1, CaMKII; assay: Autonomous CaMKII activity (pre-autophosphorylated CaMKII); type: biochemical
Method: as §2

Langerhans' islets = assay: Glucose-induced insulin secretion from isolated Langerhans' islets; type: cell-based, rat; settings: 11 mM glucose; EGTA 0.5 mM, KN93 10 μM, antCN27 5 μM, tatCN21 5 μM
Method: Insulin secretion. Langerhans' islets acutely isolated from adult male Wistar rats (Harlan) were obtained. […] Inhibitors or EGTA were added 30 min before stimulation. Insulin secreted into the medium during 90 min stimulation was measured using an ELISA kit (CrystalChem).

Sequence of CaMKI (Q14012 whole entry, species assumed): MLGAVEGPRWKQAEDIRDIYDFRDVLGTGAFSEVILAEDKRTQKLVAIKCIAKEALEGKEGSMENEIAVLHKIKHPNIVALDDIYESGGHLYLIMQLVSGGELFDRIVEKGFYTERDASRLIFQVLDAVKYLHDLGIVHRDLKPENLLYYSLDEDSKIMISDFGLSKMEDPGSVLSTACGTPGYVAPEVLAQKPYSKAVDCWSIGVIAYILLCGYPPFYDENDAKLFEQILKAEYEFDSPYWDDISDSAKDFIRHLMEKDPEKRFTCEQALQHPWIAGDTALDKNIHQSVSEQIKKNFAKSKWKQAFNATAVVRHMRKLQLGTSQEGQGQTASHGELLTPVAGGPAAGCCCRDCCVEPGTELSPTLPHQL

## KRPPKLGQIGRSKRVVIEDDR [CN21]
CaMKII [1]
  CaMKII phosphorylation of bacterially expressed GST-NR2B-c: blocks CaMKII phosphorylation
  CaMKII phosphorylation of crude liver protein extracts: blocks CaMKII phosphorylation
[2]
  CaMKII binding to immobilized GST-NR2B-c / NR2B: efficiently blocked
[3]
  activity of the other kinases of the panel: not affected
[4]
  activity of CaMKII T-site mutants W237R and 1205K compared to GFP-CaMKIIα wild type: significantly less affected
CaMKII [5]
  CaMKII T305 auto-phosphorylation: blocked T305
  CaMKII T286 auto-phosphorylation: no significant effect
CaMKII [5]; listed as CN21a
  CaMKII T305 auto-phosphorylation: blocks
  CaMKII T286 auto-phosphorylation: not T286 autophosphorylation
CaMKI
  effect on CaMKI activity: no significant effect
CaMKII [6]; 5 μM peptide
  CaMKII activity in kinase panel: completely blocked
CaMKII [7]
  inhibition of CaMKII isoforms α and β: inhibit both major brain CaMKII isoforms, α and β
CaMKII [7]; CN truncation peptides, substrate peptides AC2 or syntide 2, listed as CN21a
  inhibitory potency on CaMKII activity: contains the full inhibitory potency; also recorded: full inhibitory effect
CaMKII [7]; phosphorylation of syntide 2, read-out: IC50 of CaMKII inhibition
  IC50: ~100 nM
CaMKII [7]; versus substrate AC2, Lineweaver-Burk plot
  mechanism of CaMKII inhibition: competitive with AC2
[8]
  CaM dissociation from CaMKII: slowed down CaM dissociation from CaMKII

## tatCN21: CN21 fused to the cell penetrating tat sequence (YGRKKRRQRRRKRPPKLGQIGRSKRVVIEDDR)
[9]; 7DIV cortical, added 1-6 hours post insult
  glutamate induced cell death: inhibits glutamate induced cell death
[9]; added 1 h after the insult
  glutamate induced neuronal cell death: protective also when added 1 h after the insult
[9]; added 1 h after the insult, listed as tatCN21a
  glutamate induced neuronal cell death: also when added 1h after the insult
[9]; present during the insult
  glutamate induced neuronal cell death: reduce by half
[9]; present during the insult, listed as tatCN21a
  glutamate induced neuronal cell death: inhibited glutamate induced neuronal cell death
[2]
  CaMKII binding to immobilized GST-NR2B-c / NR2B: efficiently blocked
[2]; listed as TatCN21
  CaMKII binding to immobilized GST-NR2B-c / NR2B: inhibited binding
[10]
  NMDA induced cell death: reduces NMDA-induced cell death
CaMKII [5]; 1-5 μM peptide
  MAP2 (substrate) phosphorylation by CaMKII: blocked MAP2
CaMKII [5]
  CaMKII T286 auto-phosphorylation: not T286 phosphorylation
CaMKI
  effect on CaMKI activity: dramatically reduces CaMKI activity
CaMKII [6]; 1 μM peptide
  CaMKII activity in kinase panel: completely blocked CaMKII activity
CaMKII [6]; 5 μM peptide
  CaMKII activity in kinase panel: blocked CaMKII activity
CaMKII [7]; 1 μM peptide
  CaMKII-mediated AC2/AC3 phosphorylation at varying CaM concentrations: strongly inhibited
CaMKII [7]; substrate syntide2
  calcium and calmodulin stimulated CaMKII activity: inhibit calcium and calmodulin stimulated CaMKII activity
Calmodulin (CaM)
  competition with CBD for binding of TA-labeled CaM: did not show any competition and not
Hippocampal neurons
  motility in hippocampal neurons: inhibits motility in hippocampal neurons
CaMKII [11]
  CaMKII self-association in vitro: inhibited
CaMKII [12]
  autonomous CaMKII activity: inhibits autonomy; also recorded: blocks not only stimulated but also autonomous CaMKII activity
Langerhans' islets
  glucose-induced insulin secretion: inhibited
